In data set [1] the test system is carbachol- or histamine-induced bronchoconstriction. In words: Bronchodilator Test Method I, anesthetized dog, intravenous activity. As to conditions: Canis lupus familiaris; for inhibition in vivo at 0.002 mg/kg: 2 mcg/kg i.v. The data set is classed as in vivo. Summed up: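 Pentobarbital-anesthetized (30 mg/kg i.v.), open-chest, artificially ventilated dogs were given i.v. carbachol (4-6 µg/kg) or histamine diphosphate (35-45 µg/kg). Test compound was given i.v. mixed with, after, or 1-10 min before the constrictor.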

Data set [2] in a line: Stability of test solutions. As to conditions: ethylenediaminetetraacetic acid added; distilled water or saline solutions.
Data set [3] concerns carbachol- or histamine-induced bronchoconstriction. The data set is described as follows: Bronchodilator Test Method I, anesthetized dog, intraduodenal activity. The data set is classed as in vivo. As to conditions: Canis lupus familiaris, read-out: Bronchodilation; for inhibition in vivo at 0.035 mg/kg: 35 mcg/kg (salt) intraduodenal; for inhibition in vivo at 0.07 mg/kg: 70 mcg/kg (salt) intraduodenal; for inhibition in vivo at 0.28 mg/kg: 280 mcg/kg (salt) intraduodenal; for inhibition in vivo at 0.03 mg/kg: 30 mcg/kg (salt) intraduodenal; for inhibition in vivo at 0.12 mg/kg: 120 mcg/kg (salt) intraduodenal. Summed up: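 Pentobarbital-anesthetized (30 mg/kg i.v.) open-chest dogs of 9-18 kg, artificially ventilated; airway pressure recorded via tracheal cannula transducer. Test solution injected intraduodenally; from 5 min, i.v. carbachol (4-6 μg/kg) or histamine diphosphate (35-45 μg/kg) challenges every 30-60 min gauged degree and duration of bronchodilation.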

For data set [4], the system named is guinea pig bronchioles constricted by carbachol. In words: Bronchodilator Test Method II, in vitro perfused guinea pig lung. The procedure:
In this method bronchodilator activity in vitro was determined by testing the effect of graded doses of the test compounds on guinea pig bronchioles constricted by carbachol, using the technique reported by Sollman and von Oettingen, Proc. Soc, Exp. Biol. Med., 25,692 (1928) as modified by Tainter, Pedden, and James, J. Pharm. Exp. Ther., 51, 371 (1934) and by Luduena, von Euler, Tullar, and Lands, Arch. intern. Pharmacol., III, 392 (1957).

Data set [5] has as its system heart rate. The data set is described as follows: Cardiovascular studies: effect on the heart rate in the anesthetized dog. The data set is classed as in vivo. Summed up:
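Anesthetized dogs, mostly spontaneously breathing, some open-chest, given rapid intravenous injections. Heart rate by electrocardiograph with blood pressure recorded simultaneously, every 0.5-1 minute for 10 minutes then every 2-5 minutes until recovery; several doses or compounds sometimes tested alternately in one dog.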

Data set [6] has as its system diastolic blood pressure. In words: Effect on diastolic blood pressure in the anesthetized dog. The data set is classed as in vivo. The procedure:
The effect of a rapid intravenous injection on the heart rate the heart rate was conducted in anesthetized dogs under normal respiration. A few open-chest dogs were also tested. Increase in heart rate was measured by using an electrocardiograph attached to the dog. Readings were taken every 0.5-1 minute for the first 10 minutes and every 2-5 minutes thereafter until recovery. In some cases, several doses and more than one compound were tested alternately in the same dog. The blood pressure effect was simultaneously recorded.

Read-outs that look alike come from different tables or passages of the source.

Take `CCC(NC(C)C)C(O)c1ccc(O)c(O)c1` (stereo not drawn) [IV, 3,4-Dihydroxy-alpha-[1-(isopropylamino)-propyl]benzyl alcohol, reference compound]: the inhibition in vivo at 0.002 mg/kg amounted to 32% in data set [1] (5 min, 5 min, read-out: Bronchodilatation) and 0% in data set [1] (0.5 h, 30 min, read-out: Bronchodilatation). In addition, the inhibition in vivo at 0.004 mg/kg in data set [1] (5 min, 4 mcg/kg i.v., 5 min, read-out: Bronchodilatation) was determined as 72%; in data set [1] (0.5 h, 4 mcg/kg i.v., 30 min, read-out: Bronchodilatation) it was 31%; in data set [1] (1 h, 4 mcg/kg i.v., 60 min, read-out: Bronchodilatation), 19%. In addition, the inhibition in vivo at 0.008 mg/kg in data set [1] (5 min, 8 mcg/kg i.v., 5 min, read-out: Bronchodilatation) was 74%; in data set [1] (0.5 h, 8 mcg/kg i.v., 30 min, read-out: Bronchodilatation), 13%; in data set [1] (1 h, 8 mcg/kg i.v., 60 min, read-out: Bronchodilatation), 13%. The “need for stabilizing agent in solution” value in data set [2] was “required to stabilize them”.
For the compound `CC(C)(C)NCC(O)c1ccc(O)c(O)c1` (stereo not drawn) [Ref. Cpd. I, 3,4-Dihydroxy-alpha-(tert-butylaminomethyl)benzyl alcohol, reference compound], the inhibition in vivo at 0.00017 mg/kg in data set [1] (1 min, 0.17 mcg/kg i.v., 1-2 min, read-out: Bronchodilatation) came to 22%. The inhibition in vivo at 0.00035 mg/kg in data set [1] (1 min, 0.35 mcg/kg i.v., 1-2 min, read-out: Bronchodilatation) is 57%. The inhibition in vivo at 0.035 mg/kg in data set [3] (10 min, 10 min) came out at 34%; in data set [3] (0.5 h, 30 min), 41%; in data set [3] (1 h, 60 min) it was 44%; in data set [3] (2 h, 120 min), 27%; in data set [3] (3 h, 180 min), 3%. Also, the inhibition in vivo at 0.07 mg/kg in data set [3] (10 min, 10 min) stood at 40%; in data set [3] (0.5 h, 30 min), 60%; in data set [3] (1 h, 60 min), 35%; in data set [3] (2 h, 120 min), 30%; in data set [3] (4 h, 240 min), 0%. Besides, the inhibition in vivo at 0.28 mg/kg in data set [3] (10 min, 10 min) came to 66%; in data set [3] (0.5 h, 30 min), 59%; in data set [3] (1 h, 60 min), 46%; in data set [3] (2 h, 120 min) it was 54%; in data set [3] (3 h, 180 min) it was 30%. In addition, the ED50 in data set [4] (carbachol (Doryl) 1:5 million) is 0.18 µg (base). Also, in data set [4] (dose 0.32 mcg (base)), the “Duration, Mean” value was 5 ± 1.4 min. Also, the “Mean Maximal Increase in the Heart Rate” value in data set [5] (0.17 mcg/kg (salt) i.v.) came out at 20%; in data set [5] (0.35 mcg/kg (salt) i.v.), 32%; in data set [5] (0.7 mcg/kg (salt) i.v.), 44%. In addition, the “Mean Decrease in Diastolic Blood Pressure” value came out at 13% in data set [6] (0.17 meg/kg (salt) i.v.), 33% in data set [6] (0.35 meg/kg (salt) i.v.) and 41% in data set [6] (0.7 meg/kg (salt) i.v.). In addition, the “need for stabilizing agent in solution” value in data set [2] was “required to stabilize them”.
In the case of `CC(C)NCC(O)c1ccc(O)c(O)c1` (stereo not drawn) [Ref. Cpd. II, 3,4-Dihydroxy-alpha-(isopropylaminomethyl)benzyl alcohol, reference compound], in data set [1] (1 min, 0.3 mcg/kg i.v., 1-2 min, read-out: Bronchodilatation), the inhibition in vivo at 0.0003 mg/kg came out at 23%. Moreover, the inhibition in vivo at 0.0006 mg/kg in data set [1] (1 min, 0.6 mcg/kg i.v., 1-2 min, read-out: Bronchodilatation) came out at 35%. In addition, the inhibition in vivo at 0.0012 mg/kg in data set [1] (1 min, 1.2 mcg/kg i.v., 1-2 min, read-out: Bronchodilatation) is 55%. Besides, the inhibition in vivo at 0.03 mg/kg in data set [3] (10 min, 10 min) stood at 9%; in data set [3] (0.5 h, 30 min), 5%; in data set [3] (1 h, 60 min) it was 0%. Moreover, the inhibition in vivo at 0.12 mg/kg was 28% in data set [3] (10 min, 10 min); 5% in data set [3] (0.5 h, 30 min); 19% in data set [3] (1 h, 60 min). Moreover, the “Duration, Mean” value in data set [4] (dose 0.75 mcg (base)) amounted to 5 min. Moreover, the “Mean Maximal Increase in the Heart Rate” value in data set [5] (0.15 mcg/kg (salt) i.v.) stood at 26%; in data set [5] (0.3 mcg/kg (salt) i.v.), 35%; in data set [5] (0.6 mcg/kg (salt) i.v.) it was 50%. The “Mean Decrease in Diastolic Blood Pressure” value in data set [6] (0.15 meg/kg (salt) i.v.) amounted to 12%; in data set [6] (0.3 meg/kg (salt) i.v.) it was 32%; in data set [6] (0.6 meg/kg (salt) i.v.), 40%.
On to `CNCC(O)c1ccc(O)c(O)c1` (stereo not drawn) [V, 3,4-Dihydroxy-alpha-(methylaminomethyl)benzyl alcohol, reference compound], for which the inhibition in vivo at 0.004 mg/kg in data set [1] (1 min, read-out: Bronchodilatation, 4 mcg/kg i.v., 1-2 min) is 0%; in data set [1] (10 min, read-out: Bronchodilatation, 4 mcg/kg i.v., 10 min), 0%. In addition, the inhibition in vivo at 0.064 mg/kg came out at 29% in data set [1] (1 min, read-out: Bronchodilatation, 64 mcg/kg i.v., 1-2 min) and 0% in data set [1] (0.5 h, read-out: Bronchodilatation, 64 mcg/kg i.v., 30 min). For the same compound, the inhibition in vivo at 0.008 mg/kg in data set [1] (10 min, read-out: Bronchodilatation, 8 mcg/kg i.v., 10 min) amounted to 0%; in data set [1] (0.5 h, read-out: Bronchodilatation, 8 mcg/kg i.v., 30 min) it was 0%. The inhibition in vivo at 0.016 mg/kg in data set [1] (0.5 h, read-out: Bronchodilatation, 16 mcg/kg i.v., 30 min) came out at 5%. For the same compound, the “need for stabilizing agent in solution” value in data set [2] is on record as “required to stabilize them”.

Source of the values: patent USRE30241E, “Esters of 3-(hydroxy or hydroxymethyl)-4-hydroxyphenyl aminomethyl ketones” (Sterling Drug Inc., priority 1970, dated 1980).
